Legend:
Lewis rats = assay: Induction of EAE in Lewis rats by immunization with peptide in CFA; assay type: in vivo, rat; conditions: for EAE Incidence (# affected animals/total # animals injected) / EAE severity score (in parentheses): Table IV, dose not given; for EAE Severity (mean group severity, max. = 3.0) / EAE Incidence: Lewis rats; for EAE severity score (in parentheses): max. = 3.0; for Encephalitogenic activity in LEW rats (in words): peptide in CFA, s.c.
Method: Peptides were administered subcutaneously to LEW rats at 5 μg or 50 μg doses in the standard manner. Eight- to twelve-week-old female Lewis rats (purchased from Charles River, Raleigh, N.C.) were immunized subcutaneously at the hind footpad with the appropriate synthetic peptide, emulsified in complete Freund's adjuvant (CFA, Difco, Detroit, Mich.). […] Animals were followed for 21 days post-immunization. Hematoxylin-eosin-stained and toluidine blue-stained spinal cord sections from representative rats were examined for inflammatory cell infiltration and demyelination without knowledge of the group of origin.

[1] = system: T cells from rats immunized with the chlamydial peptide; assay: T cell proliferation assay (3H-thymidine), Cpn0483-primed T cells; assay type: cell-based, rat; conditions: for Proliferation of peptide-primed T cells in response to irrelevant peptide: specificity control, priming peptide not specified; for Proliferative response of Cpn0483-primed T cells to peptide: 96 hr culture with irradiated thymocytes as APCs, FIG. 3
Method: (§1) To further investigate the immunopathology underlying the clinical observations, T cells were isolated from the spleens of rats immunized with Cpn0483 or MBP68-86, and recall responses were assessed using standard T cell proliferation assays.
(§2) Briefly, splenocytes were isolated from peptide-primed rats, adherent cells were removed by culture on plastic Petri dishes, and T cells were isolated on T cell columns (Biotec, Edmonton, Canada). The T cells were cultured for 96 hr with irradiated (2000rad) syngeneic thymocytes as antigen presenting cells (APCs), and peptide, in 96-well flat-bottom microtiter plates. The cultures were pulsed with ^3H-thymidine (0.5 μCi/well) 18 hr prior to harvesting cells, and 3H-thymidine incorporation was measured in a liquid scintillation counter (Wallac 1450 Microbeta Plus, Gaithersburg, Md.). Cultures were run in quadruplicate and each experiment was repeated at least twice. Dose-response studies were performed using various peptides at differing concentrations, and representative results are presented.

[2] = system: T cells derived from rats immunized with rat MBP68-86; assay: T cell proliferation assay (3H-thymidine), rat MBP68-86-primed T cells; assay type: cell-based; conditions: 96 hr culture with irradiated thymocytes as APCs, FIG. 4
Method: as §1, §2

[3] = system: syngeneic recipients (LEW rats); assay: Transfer of EAE with peptide-activated spleen cells from Cpn0483-immunized rats; assay type: in vivo, rat; conditions: Cpn0483-primed spleen cells activated in vitro with the named peptide for 72 hr
Method: Both are characteristic pathological findings in the rat model of EAE (Zamvil et al., supra; Swanborg, 1995, supra) and are also observed in MS (Raine et al., 1999, supra). […] This feature is prominent in MS, but is not characteristic of acute EAE in LEW rats. When spleen cells were prepared from Cpn0483-immunized LEW rats with EAE and activated in vitro with the same peptide for 72 hr, they transferred clinical disease to 6 of 9 syngeneic recipients. Six of 9 recipients of Cpn-primed spleen cells activated with MBP68-86 also developed clinical EAE. Mononuclear infiltration was present in the spinal cords of recipients with clinical disease, as expected.

[4] = system: short-term T cell line from Cpn0483 peptide-immunized rats; assay: Cytokine secretion by short-term T cell line (ELISA); assay type: cell-based, rat; conditions: activated for 72 hr with the chlamydial peptide
Description: It has been well established that EAE in rodents is mediated by IFN-γ-producing Th1 inflammatory cells ((Zamvil et al., supra; Swanborg, supra; R. B. Smeltz et al., J. Immunol. 162, 829 (1999)).

[5] = 5 μg peptide s.c. in CFA, affected/total
[6] = 50 μg peptide s.c. in CFA, Table 2
[7] = 50 μg peptide s.c. in CFA, affected/total, Table 2
[8] = groups given either dose (5 μg or 50 μg)

Row | Substance | EAE Incidence (# affected animals/total # animals injected) (Lewis rats) | EAE Incidence (Lewis rats; Incidence at 50 μg, Table 3) | EAE severity score (in parentheses) (Lewis rats) | Encephalitogenic activity in LEW rats (in words) (Lewis rats) | EAE Severity (mean group severity, max. = 3.0) (Lewis rats; [6]) | EAE Incidence (Lewis rats; [7]) | other results
1 | HYGCLLPRNPRTED (listed as Chlamydia pneumoniae) [N4/C2 truncated] | 0/5 | – | – | – | – | – | –
2 | MBP11-30: irrelevant nonencephalitogenic peptide (SAEKASKDGEIHRGEAGKKR; UniProt P04370 11-30, looked up, fragment) | – | – | – | – | – | – | Proliferation of peptide-primed T cells in response to irrelevant peptide [1]: lack of proliferation
3 | MBP31-50: irrelevant nonencephalitogenic peptide (SVGKLSQTASEDSDVFGEAD; UniProt P04370 31-50, looked up, fragment) | – | – | – | – | – | – | Proliferation of peptide-primed T cells in response to irrelevant peptide [1]: lack of proliferation
4 | NHYGCLLPRNPRTED (listed as Chlamydia pneumoniae) [N3/C2 truncated] | 0/5 | – | – | – | – | – | –
5 | PNHYGCLLPRNPRTEDQN (listed as Chlamydia pneumoniae) [N2—truncated] | 0/5 | – | – | – | – | – | –
6 | RFPNHYGCLLPRNPR (listed as Chlamydia pneumoniae) [C5—truncated] | 0/5 | – | – | – | – | – | –
7 | RFPNHYGCLLPRNPRTEAQN (listed as Chlamydia pneumoniae) [Cpn D>A] | 9/10 | 9/10 | 2.7 | elicited severe EAE | – | – | EAE Severity (mean group severity, max. = 3.0) (Lewis rats; 50 μg, Table 3): 2.7
8 | RFPNHYGCLLPRNPRTEDQN (listed as Chlamydia pneumoniae) [Cpn0483, 20-mer peptide near the C-terminus of C. pneumoniae protein Cpn0483] | 5/5 | 5/5 | 3.0 | encephalitogenic | 2.3 | 14/15 | Proliferative response of Cpn0483-primed T cells to peptide [1]: respond to priming peptide; Proliferative response of Cpn0483-primed T cells to peptide ([1]; listed as chlamydial peptide): responded vigorously; Proliferative response of rat MBP68-86-primed T cells to peptide [2]: cross-reacted only minimally; Proliferative response of rat MBP68-86-primed T cells to peptide ([2]; listed as chlamydial peptide): cross-react; Recipients developing clinical EAE after cell transfer [3]: 6 of 9; EAE Severity (mean group severity, max. = 3.0) (Lewis rats; 5 μg peptide s.c. in CFA): 1.8; EAE Incidence (Lewis rats; [5]): 3/5; EAE Severity (mean group severity, max. = 3.0) (Lewis rats; 50 μg, Table 3): 3.0; Demyelination in spinal cord sections (Lewis rats; Luxol fast blue-stained sections): Significant demyelination was not observed; Initial clinical signs of EAE, time post-immunization (Lewis rats; [8]): approximately 12 days; Persistence of clinical signs of EAE (Lewis rats; [8]): 3 to 6 days; Encephalitogenic activity in LEW rats (in words) (Lewis rats; listed as chlamydial peptide): as effective as guinea pig or rat MBP68-86 peptide in causing paralysis; Spinal cord inflammatory cell infiltration (histology) (Lewis rats; spinal cords of immunized rats): Extensive perivascular cuffing and parenchymal mononuclear cell infiltration; IFN-γ secreted [4]: 7,000 pg/ml; IL-4 production [4]: did not produce detectable IL-4
9 | RFPNHYGSLLPRNPRTEDQN (listed as Chlamydia pneumoniae) [Cpn0483 C > S] | 8/10 | – | 2.4 | lack of effect | 2.2 | 4/5 | EAE Severity (mean group severity, max. = 3.0) (Lewis rats; 5 μg peptide s.c. in CFA): 2.4; EAE Incidence (Lewis rats; [5]): 4/5
10 | YGCLLPRNPRTEDQN (listed as Chlamydia pneumoniae) [N5—truncated] | 0/5 | – | – | – | – | – | –
11 | YGSLPQKSORTQAENPV (YGSLPQKSQRSQAENPV; listed as Rattus sp.) [MBP D>A, reference compound] | – | 0/10 | – | abolished encephalitogenic activity | – | – | –
12 | YGSLPQKSQRSQDENPV (Guinea pig) [gp68-86, guinea pig myelin basic protein peptide 68-86, reference compound] | – | – | – | induced clinical disease with comparable severity and time course | 3.0 | 5/5 | –
13 | YGSLPQKSQRTQDENPV (listed as Rattus sp.) [rat68-86, rat myelin basic protein peptide 68-86, reference compound] | 5/5 | 5/5 | 3.0 | induced clinical disease with comparable severity and time course | 2.7 | 10/10 | Proliferative response of Cpn0483-primed T cells to peptide ([1]; listed as rat MBP68-86): responded significantly; Proliferative response of Cpn0483-primed T cells to peptide ([1]; listed as ratMBP68-86): cross-react; Proliferative response of rat MBP68-86-primed T cells to peptide ([2]; listed as rat MBP68-86): proliferated vigorously; Proliferative response of rat MBP68-86-primed T cells to peptide ([2]; listed as ratMBP68-86): respond to priming peptide; Recipients developing clinical EAE after cell transfer [3]: Six of 9; EAE Severity (mean group severity, max. = 3.0) (Lewis rats; 50 μg, Table 3): 3.0
